Data set [1] is described as follows: Solubility in water. It counts as physicochemical. An excerpt:
In one embodiment, CCcompound104, CCcompound26 and EA may be administered orally. The two CC compounds are water-soluble, while EA is first dissolved in absolute ethanol and diluted in water or a suitable physiologically compatible liquid solvent. In one embodiment of the invention, the CC compounds and EA are in the form of a tablet, gel capsule, a liquid, or the like. In each case, the compounds are mixed with one or more carriers chosen by one having ordinary skill in the art to best suit the goal of treatment. In addition to the active compounds, the tablet or gel may contain any component that is presently used in the pharmaceutical field to ensure firmness, stability, solubility and appropriate taste. Any additional component of the tablet or gel will be chemically inert; i.e., it will not participate in a chemical reaction with the active compounds or the other additives. Each compound may be prepared for oral consumption separately, or the tablet, gel capsule or liquid may contain any of the two components or all three components. Tablets containing 25 mg or 50 mg of EA can be purchased from Merck.

The test system of data set [2] is parent L5178 cells. Put plainly: Rhodamine 123 cellular content in parent L5178 cells (flow cytometry). It counts as cell-based, mouse. As to conditions: data not shown. Here is the method:
The L5178 mouse T cell lymphoma parent cell line and its MDR1 expressing subline (L5178/MDR1) were used. […] The cells were adjusted to a concentration of 2×10^6 cells per ml, then resuspended in serum-free McCoy's 5A medium and 0.5-ml portions distributed into small (1.2-ml) Eppendorf centrifuge tubes. After adding various concentrations of test compounds as listed below in Table 2, the samples were incubated for 10 min at room temperature (22° C.). […] After centrifugation (450 g, 10 min) the pelleted cells were washed twice with PBS and resuspended in 0.5-ml of PBS for cytometry. The fluorescence intensity of the cell population was measured by flow cytometry using Beckton Dickinson's FACScan instrument.
The percentage mean fluorescence intensity (FL-1) was calculated for the treated parental and MDR1 cell lines as compared with that of untreated cells. […] Other values measured are Forward scattered count (FSC) and site scattered count (SSC).
(In general: In flow cytometry, cells or beads pass a laser one at a time.)

Take `C[Si](C)(C)COc1ccc(C(=O)OCCN2CCN(CCCOC(=O)C3c4ccccc4Oc4ccccc43)CC2)cc1.Cl.Cl` [CCcompound104]: the solubility in water result in data set [1] is “water-soluble”. Further, the “effect on the cellular content of Rhodamine 123” value in data set [2] is recorded as “no detectable effects”.
